# Literature values, collected in patent US20060128805A1, “Methods of treating erythropoietin-resistance” (priority 2004, published 2006).
# Details: within the first hour of oral administration
smiles,measurement,value
"Cc1c(O)c(=O)ccn1C [deferiprone, 1,2-dimethyl-3-hydroxy-pyrid-4-one]",mean increase in plasma aluminum,about 90%
